Biological target: T1, Human dopamine D4 receptor (Homo sapiens, UniProt P21917)
T1 sequence (P21917 1-419): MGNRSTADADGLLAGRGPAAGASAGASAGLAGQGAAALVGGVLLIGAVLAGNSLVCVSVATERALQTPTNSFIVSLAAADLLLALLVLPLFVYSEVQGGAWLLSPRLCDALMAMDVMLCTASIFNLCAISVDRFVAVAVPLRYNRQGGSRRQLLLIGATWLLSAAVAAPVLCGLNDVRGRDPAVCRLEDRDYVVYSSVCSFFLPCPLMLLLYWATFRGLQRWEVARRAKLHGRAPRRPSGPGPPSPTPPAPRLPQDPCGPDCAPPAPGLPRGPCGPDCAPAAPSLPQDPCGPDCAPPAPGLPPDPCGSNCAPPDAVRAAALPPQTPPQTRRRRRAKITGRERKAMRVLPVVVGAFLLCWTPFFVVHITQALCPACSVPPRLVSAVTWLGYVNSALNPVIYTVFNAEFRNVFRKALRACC
Assay: Agonistic/antagonistic activity in G protein dependent pathway (aequorin intracellular calcium luminescence), D4
Assay type: cell-based
Design: expressed in transfected cells; host or cells: CHO-K1 or HEK293 cells
Conditions: 0.1 μM; against 10 μM endogenous ligand; read-out: Inhibitory activity on each receptor (%): D4
Procedure: (§1) Plasmids encoding each receptor, aequorin and Gα16 were prepared, and the plasmids were transfected into CHO cells (Chinese Hamster Ovary cells) or HEK293 cells (Human Embryonic Kidney 293 cells) to prepare expressing cell lines.
(§2) The agonistic or antagonistic activity of the present compound in the G protein dependent pathway was evaluated on the basis of intracellular calcium levels as follows. CHO-K1 or HEK293 cell lines transfected with D2, D4, α1A, or α2A receptor genes were seeded in a 384-well plate, and incubated in a CO2 incubator at 37° C. for 24 hours, and then a solution of the present compound in DMSO was added into cells preloaded with coelenterazine to measure the change in luminescent signals with a FDSS (Hamamatsu Photonics K.K.). […] The agonistic activity of the present compound was calculated according to the measured luminescent signals, as the maximal activity (Emax) of the present compound. On the other hand, the antagonistic activity of the present compound was calculated according to the luminescent signals in wells with 10 μM of an endogenous ligand alone defined as 100%, as the inhibitory activity of the present compound to an endogenous ligand. EC50 value was calculated as the concentration of the present compound required to achieve a 50% response, and IC50 was calculated as the concentration of the present compound required to achieve a 50% inhibition of the Emax of an endogenous ligand.

Compared with `Cc1ncc(CN2CCC(c3ccccn3)CC2)c(C)n1` [Example 44, 2,4-Dimethyl-5-[4-(pyridin-2-yl)piperidin-1-ylmethyl]pyrimidine], `Cc1ncc(CN2CCC(c3cccnc3)CC2)c(C)n1` [Example 45, 2,4-Dimethyl-5-[4-(pyridin-3-yl)piperidin-1-ylmethyl]pyrimidine] is higher in inhibition at 0.1 µM: 58% for the first, 72% for the second.

`Nc1ncc(CN2CCC(c3cncc(F)c3)CC2)cn1` [Example 46, 5-[4-(5-Fluoropyridin-3-yl)piperidin-1-ylmethyl]pyrimidin-2-amine] gave an inhibition at 0.1 µM of 61%.

Same assay, conditions: 1 μM; against 10 μM endogenous ligand; read-out: Inhibitory activity on each receptor (%): D4

Compared with `Cc1ncc(CN2CCC(c3ccccn3)CC2)c(C)n1` [Example 44, 2,4-Dimethyl-5-[4-(pyridin-2-yl)piperidin-1-ylmethyl]pyrimidine], `Cc1ncc(CN2CCC(c3cccnc3)CC2)c(C)n1` [Example 45, 2,4-Dimethyl-5-[4-(pyridin-3-yl)piperidin-1-ylmethyl]pyrimidine] is higher in inhibition at 1 µM: 78% for the first, 87% for the second.

`Nc1ncc(CN2CCC(c3cncc(F)c3)CC2)cn1` [Example 46, 5-[4-(5-Fluoropyridin-3-yl)piperidin-1-ylmethyl]pyrimidin-2-amine] showed an inhibition at 1 µM of 85%.

Same assay, conditions: read-out: Maximal activity on each receptor (%): D4

Going from `Cc1ncc(CN2CCC(c3ccccn3)CC2)c(C)n1` [Example 44, 2,4-Dimethyl-5-[4-(pyridin-2-yl)piperidin-1-ylmethyl]pyrimidine] to `Cc1ncc(CN2CCC(c3cccnc3)CC2)c(C)n1` [Example 45, 2,4-Dimethyl-5-[4-(pyridin-3-yl)piperidin-1-ylmethyl]pyrimidine], the Emax at 0.1 µM falls from 27% to 20%.

In the case of `Nc1ncc(CN2CCC(c3cncc(F)c3)CC2)cn1` [Example 46, 5-[4-(5-Fluoropyridin-3-yl)piperidin-1-ylmethyl]pyrimidin-2-amine], the Emax at 0.1 µM was 14%.

Compared with `Cc1ncc(CN2CCC(c3ccccn3)CC2)c(C)n1` [Example 44, 2,4-Dimethyl-5-[4-(pyridin-2-yl)piperidin-1-ylmethyl]pyrimidine], `Cc1ncc(CN2CCC(c3cccnc3)CC2)c(C)n1` [Example 45, 2,4-Dimethyl-5-[4-(pyridin-3-yl)piperidin-1-ylmethyl]pyrimidine] is lower in Emax at 1 µM: 64% for the first, 35% for the second.

For `Nc1ncc(CN2CCC(c3cncc(F)c3)CC2)cn1` [Example 46, 5-[4-(5-Fluoropyridin-3-yl)piperidin-1-ylmethyl]pyrimidin-2-amine], the Emax at 1 µM was 40%.

Biological target: T1, Human dopamine D4 receptor
Assay: G protein independent pathway: β-arrestin recruit ability (PathHunter β-galactosidase)
Assay type: cell-based
Design: expressed in transfected cells
Conditions: β-arrestin recruitment, 90 minutes; 10 μM dopamine = 100%
Procedure: The activation of the G protein independent pathway was evaluated on the basis of the recruit ability of β-arrestin as follows. Cell lines transfected with D4 receptor genes were seeded in a 384-well plate, and incubated in a CO2 incubator at 37° C. for 24 hours, a solution of the present compound in DMSO was added into the cells, and then the cells were left at 37° C. for 90 minutes. Buffer containing β-galactosidase reaction substance (PathHunter Cell Assay Buffer, DiscoverRx) was added thereto, and luminescent signals in the wells were measured with a FDSS (Hamamatsu Photonics K.K.). […] The maximal activity (Emax) of the present compound was calculated according to the measured luminescent signals. EC50 value was calculated as the concentration of the present compound required to achieve a 50 response.

First: Cc1ncc(CN2CCC(c3ccccn3)CC2)c(C)n1 [Example 44, 2,4-Dimethyl-5-[4-(pyridin-2-yl)piperidin-1-ylmethyl]pyrimidine]
Second: Cc1ncc(CN2CCC(c3cccnc3)CC2)c(C)n1 [Example 45, 2,4-Dimethyl-5-[4-(pyridin-3-yl)piperidin-1-ylmethyl]pyrimidine]
The “Maximal activity on D4 receptor (%)” value of the first is lower: 6% for the first, 9% for the second.

In the case of `Nc1ncc(CN2CCC(c3cncc(F)c3)CC2)cn1` [Example 46, 5-[4-(5-Fluoropyridin-3-yl)piperidin-1-ylmethyl]pyrimidin-2-amine], the “Maximal activity on D4 receptor (%)” value was 11%.

Biological target: T2, human adrenergic α1A receptor (Homo sapiens, UniProt P35348)
T2 construct: expressed in transfected cells; host or cells: CHO-K1 or HEK293 cells
T2 sequence (P35348 1-466): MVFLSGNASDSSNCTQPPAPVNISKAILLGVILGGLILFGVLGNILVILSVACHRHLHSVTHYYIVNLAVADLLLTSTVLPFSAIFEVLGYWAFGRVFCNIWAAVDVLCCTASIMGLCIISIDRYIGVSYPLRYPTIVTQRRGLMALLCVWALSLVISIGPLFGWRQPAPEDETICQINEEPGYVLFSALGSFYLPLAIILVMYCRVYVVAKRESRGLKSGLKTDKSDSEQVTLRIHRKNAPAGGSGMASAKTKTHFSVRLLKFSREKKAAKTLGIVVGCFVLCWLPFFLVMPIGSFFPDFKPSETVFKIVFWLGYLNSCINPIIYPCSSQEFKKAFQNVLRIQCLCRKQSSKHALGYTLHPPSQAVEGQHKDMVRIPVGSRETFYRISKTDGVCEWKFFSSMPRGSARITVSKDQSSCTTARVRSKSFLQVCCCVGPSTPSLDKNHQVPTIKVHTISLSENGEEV
Assay: Agonistic/antagonistic activity in G protein dependent pathway (aequorin intracellular calcium luminescence), α1A
Assay type: cell-based
Conditions: 0.1 μM; 10 μM adrenaline = 100%
Procedure: as §1, §2

Going from `Cc1ncc(CN2CCC(c3ccccn3)CC2)c(C)n1` [Example 44, 2,4-Dimethyl-5-[4-(pyridin-2-yl)piperidin-1-ylmethyl]pyrimidine] to `Cc1ncc(CN2CCC(c3cccnc3)CC2)c(C)n1` [Example 45, 2,4-Dimethyl-5-[4-(pyridin-3-yl)piperidin-1-ylmethyl]pyrimidine], the “Maximal activity on each receptor (%): α1A” value (“Maximal activity … (%): α1A” for short) falls from 0.04% to 0.03%.

In the case of `Nc1ncc(CN2CCC(c3cncc(F)c3)CC2)cn1` [Example 46, 5-[4-(5-Fluoropyridin-3-yl)piperidin-1-ylmethyl]pyrimidin-2-amine], the “Maximal activity … (%): α1A” value was 0.08%.

Same assay, conditions: 0.1 μM; against 10 μM endogenous ligand; read-out: Inhibitory activity on each receptor (%): α1A

Compared with `Cc1ncc(CN2CCC(c3ccccn3)CC2)c(C)n1` [Example 44, 2,4-Dimethyl-5-[4-(pyridin-2-yl)piperidin-1-ylmethyl]pyrimidine], `Cc1ncc(CN2CCC(c3cccnc3)CC2)c(C)n1` [Example 45, 2,4-Dimethyl-5-[4-(pyridin-3-yl)piperidin-1-ylmethyl]pyrimidine] is lower in inhibition at 0.1 µM: 2.7% for the first, -5.6% for the second.

Work on `Nc1ncc(CN2CCC(c3cncc(F)c3)CC2)cn1` [Example 46, 5-[4-(5-Fluoropyridin-3-yl)piperidin-1-ylmethyl]pyrimidin-2-amine] yielded an inhibition at 0.1 µM of -6.4%.

Same assay, conditions: 1 μM; 10 μM adrenaline = 100%

First: Cc1ncc(CN2CCC(c3ccccn3)CC2)c(C)n1 [Example 44, 2,4-Dimethyl-5-[4-(pyridin-2-yl)piperidin-1-ylmethyl]pyrimidine]
Second: Cc1ncc(CN2CCC(c3cccnc3)CC2)c(C)n1 [Example 45, 2,4-Dimethyl-5-[4-(pyridin-3-yl)piperidin-1-ylmethyl]pyrimidine]
The “Maximal activity … (%): α1A” value of the first is lower: 0.01% for the first, 0.08% for the second.

In the case of `Nc1ncc(CN2CCC(c3cncc(F)c3)CC2)cn1` [Example 46, 5-[4-(5-Fluoropyridin-3-yl)piperidin-1-ylmethyl]pyrimidin-2-amine], the “Maximal activity … (%): α1A” value was 0.23%.

Same assay, conditions: 1 μM; against 10 μM endogenous ligand; read-out: Inhibitory activity on each receptor (%): α1A

Compared with `Cc1ncc(CN2CCC(c3ccccn3)CC2)c(C)n1` [Example 44, 2,4-Dimethyl-5-[4-(pyridin-2-yl)piperidin-1-ylmethyl]pyrimidine], `Cc1ncc(CN2CCC(c3cccnc3)CC2)c(C)n1` [Example 45, 2,4-Dimethyl-5-[4-(pyridin-3-yl)piperidin-1-ylmethyl]pyrimidine] is lower in inhibition at 1 µM: 2.6% for the first, -0.73% for the second.

Work on `Nc1ncc(CN2CCC(c3cncc(F)c3)CC2)cn1` [Example 46, 5-[4-(5-Fluoropyridin-3-yl)piperidin-1-ylmethyl]pyrimidin-2-amine] yielded an inhibition at 1 µM of -17%.

Test system: not listed separately
Assay: PK study in rat (bioavailability)
Assay type: in vivo
Conditions: plasma, oral vs intravenous administration
Procedure: In this study, the pharmacokinetics of the present compound can be evaluated. Specifically, a 7-week-old SD-type or WKY-type rat received the intravenous administration of a solution of the present compound in saline or the oral administration of a suspension of the present compound in carboxymethylcellulose or methylcellulose. Blood was collected from the rat at each time below.
Intravenous administration: 5 minutes, 15 minutes, 30 minutes, 1 hour, 2 hours, 4 hours, 6 hours, and 24 hours after administration
Oral administration: 15 minutes, 30 minutes, 1 hour, 2 hours, 4 hours, 6 hours, and 24 hours after administration
Plasma was collected from the blood, the levels of the present compound in the plasma were measured by a LC-MS method, and then the pharmacokinetic parameters were calculated on the basis of the level changes.

Compared with `Cc1ncc(CN2CCC(c3ccccn3)CC2)c(C)n1` [Example 44, 2,4-Dimethyl-5-[4-(pyridin-2-yl)piperidin-1-ylmethyl]pyrimidine], `Cc1ncc(CN2CCC(c3cccnc3)CC2)c(C)n1` [Example 45, 2,4-Dimethyl-5-[4-(pyridin-3-yl)piperidin-1-ylmethyl]pyrimidine] is lower in bioavailability: 27.6% for the first, 21.6% for the second.

`Nc1ncc(CN2CCC(c3cncc(F)c3)CC2)cn1` [Example 46, 5-[4-(5-Fluoropyridin-3-yl)piperidin-1-ylmethyl]pyrimidin-2-amine] showed a bioavailability of 92.2%.

Test system: not listed separately
Assay: Brain penetration study in rat
Assay type: in vivo
Conditions: brain and plasma, unbound brain-to-plasma drug concentration ratio
Procedure: In this study, the brain penetration of the present compound can be evaluated. Specifically, a 7-week-old SD-type or WKY-type rat received the subcutaneous administration of a solution of the present compound in saline or the oral administration of a suspension of the present compound in methylcellulose. Plasma and brain were collected from the treated rat 0.5 hour, 1 hour or 2 hours after the administration, and then the levels of the present compound in the plasma and the brain were measured by a LC-MS method.
The protein binding ratios of the present compound to the plasma and the brain were measured by an equilibrium dialysis method.
The levels of the present compound in the plasma and the brain as well as the plasma and brain protein binding ratios are applied to the following formula, and thus Kp,uu,brain (Unbound brain-to-plasma drug concentration ratio) can be calculated. Kp,uu,brain=(level of the present compound in the brain×(100−brain protein binding ratio (%))/100)/(level of the present compound in the plasma×(100−plasma protein binding ratio (%))/100)

`Cc1ncc(CN2CCC(c3ccccn3)CC2)c(C)n1` [Example 44, 2,4-Dimethyl-5-[4-(pyridin-2-yl)piperidin-1-ylmethyl]pyrimidine] and `Cc1ncc(CN2CCC(c3cccnc3)CC2)c(C)n1` [Example 45, 2,4-Dimethyl-5-[4-(pyridin-3-yl)piperidin-1-ylmethyl]pyrimidine] are the same in Kp uu: 0.8 for the first, 0.8 for the second.

`Nc1ncc(CN2CCC(c3cncc(F)c3)CC2)cn1` [Example 46, 5-[4-(5-Fluoropyridin-3-yl)piperidin-1-ylmethyl]pyrimidin-2-amine] showed a Kp uu of 1.8.

Reference: US9732065B2, “Cyclic aminomethyl pyrimidine derivative” (Sumitomo Dainippon Pharma Co., Ltd., priority 2013, dated 2017)
